{
  "source": "patent US20220340875A1",
  "about": "“METHODS OF CULTURING AND/OR EXPANDING STEM CELLS AND/OR LINEAGE COMMITTED PROGENITOR CELLS USING AMIDO COMPOUNDS” (IDEAYA BIOSCIENCES, INC., priority 2018, published 2022)",
  "data": [
    {"biological_target": "T1, hAhR (Homo sapiens, UniProt P35869)", "T1 construct": "Stably integrated DRE-luciferase cell lines were generated by transducing the both cell lines with Cignal XRE luciferase reporter (Qiagen) lentiviral particles; endogenous in cells", "T1 sequence (P35869 11-848)": "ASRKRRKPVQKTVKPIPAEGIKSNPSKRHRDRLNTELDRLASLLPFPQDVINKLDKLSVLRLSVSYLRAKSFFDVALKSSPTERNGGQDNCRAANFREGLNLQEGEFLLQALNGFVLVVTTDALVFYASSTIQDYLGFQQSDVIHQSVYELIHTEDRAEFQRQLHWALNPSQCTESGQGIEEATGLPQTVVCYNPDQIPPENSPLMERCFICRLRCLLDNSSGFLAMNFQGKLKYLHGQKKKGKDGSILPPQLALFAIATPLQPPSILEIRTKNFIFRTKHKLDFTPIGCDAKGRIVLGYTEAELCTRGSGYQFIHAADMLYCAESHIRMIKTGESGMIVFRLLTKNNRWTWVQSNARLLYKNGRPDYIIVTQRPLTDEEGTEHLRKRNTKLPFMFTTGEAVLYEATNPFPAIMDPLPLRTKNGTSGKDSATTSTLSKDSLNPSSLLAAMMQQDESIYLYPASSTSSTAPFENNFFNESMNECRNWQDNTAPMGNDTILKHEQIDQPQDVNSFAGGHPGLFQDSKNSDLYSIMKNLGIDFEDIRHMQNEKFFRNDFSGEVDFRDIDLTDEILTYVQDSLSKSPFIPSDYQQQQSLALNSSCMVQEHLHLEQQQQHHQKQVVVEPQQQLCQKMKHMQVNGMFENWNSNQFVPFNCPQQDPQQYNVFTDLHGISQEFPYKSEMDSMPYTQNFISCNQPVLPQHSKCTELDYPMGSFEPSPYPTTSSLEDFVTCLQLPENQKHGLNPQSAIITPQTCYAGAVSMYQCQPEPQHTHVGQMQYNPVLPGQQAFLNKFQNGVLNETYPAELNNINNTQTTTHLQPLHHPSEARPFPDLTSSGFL", "assay": "AhR DRE-luciferase reporter transcriptional assay, antagonist mode (TCDD-induced)", "assay_type": "cell-based", "conditions": "HEPG2 DRE-Luc cells, 3 nM TCDD, 24 hour incubation, relative IC50", "in_short": "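HepG2 cells carrying a stably integrated DRE-luciferase reporter, in OptiMEM with 0.5% FBS; semi-log compound doses added with 3 nM TCDD, 24 h incubation, firefly luciferase read-out. Percent maximal activity normalised between vehicle ± TCDD; relative IC50 taken as half-reduction between curve plateaus.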", "units": {"IC50": "µM"}, "values": [
      {"smiles": "Cc1cc(-c2ncc3nc(C(F)(F)F)cc(C)c3n2)ccc1NC(=O)c1ccnc(C(N)=O)c1", "note": "[Example 166, N4-(2-methyl-4-(8-methyl-6-(trifluoromethyl)pyrido[3,2-d]pyrimidin-2-yl)phenyl)pyridine-2,4-dicarboxamide]", "IC50": "< 0.2"},
      {"smiles": "Cc1cc(-c2ncc3nc(C(F)(F)F)cc(C)c3n2)ccc1N(C)C(=O)c1cc(C(N)=O)nn1CC(N)=O", "note": "[Example 196, 1-(2-amino-2-oxoethyl)-N5-methyl-N5-(2-methyl-4-(8-methyl-6-(trifluoromethyl)pyrido[3,2-d]pyrimidin-2-yl)phenyl)-1H-pyrazole-3,5-dicarboxamide]", "IC50": "1 to 10"},
      {"smiles": "CC(=O)N(C)c1ccc(-c2ncc3cc(C(F)(F)F)ccc3n2)cc1C", "note": "[Example 130, N-methyl-N-(2-methyl-4-(6-(trifluoromethyl)quinazolin-2-yl)phenyl)acetamide]", "IC50": "< 0.2"},
      {"smiles": "Cc1cc(-c2ncc3cc(C(F)(F)F)ccc3n2)ccc1N(C)C(=O)c1ncncc1C", "note": "[Example 124, N,5-dimethyl-N-(2-methyl-4-(6-(trifluoromethyl)quinazolin-2-yl)phenyl)pyrimidine-4-carboxamide]", "IC50": "< 0.2"},
      {"smiles": "Cc1cc(-c2ccc3cc(F)ccc3n2)ccc1NC(=O)c1ccccn1", "note": "[Example 026, N-(4-(6-fluoroquinolin-2-yl)-2-methylphenyl)picolinamide]", "IC50": "0.5 to 1"},
      {"smiles": "Cc1cc(N(C)C(=O)c2ccnn2C)c(C)cc1-c1ncc2nc(C(F)(F)F)ccc2n1", "note": "[Example 188, N-(2,5-dimethyl-4-(6-(trifluoromethyl)pyrido[3,2-d]pyrimidin-2-yl)phenyl)-N,1-dimethyl-1H-pyrazole-5-carboxamide]", "IC50": "< 0.2"},
      {"smiles": "Cc1cc(-c2ncc3cc(C(F)(F)F)ccc3n2)ccc1N(C)C(=O)c1cnn[nH]1", "note": "[Example 146, N-methyl-N-(2-methyl-4-(6-(trifluoromethyl)quinazolin-2-yl)phenyl)-1H-1,2,3-triazole-5-carboxamide]", "IC50": "1 to 10"},
      {"smiles": "Cc1cc(-c2ccc3cc(F)ccc3n2)ccc1NC(=O)c1cccnn1", "note": "[Example 031, N-(4-(6-fluoroquinolin-2-yl)-2-methylphenyl)pyridazine-3-carboxamide]", "IC50": "0.5 to 1"},
      {"smiles": "Cc1cc(-c2ncc3nc(C(F)(F)F)cc(C)c3n2)ccc1NC(=O)c1ccnn1CC(N)=O", "note": "[Example 170, 1-(2-amino-2-oxoethyl)-N-(2-methyl-4-(8-methyl-6-(trifluoromethyl)-pyrido[3,2-d]pyrimidin-2-yl)phenyl)-1H-pyrazole-5-carboxamide]", "IC50": "< 0.2"},
      {"smiles": "Cc1cc(-c2ccc3cc(C(F)(F)F)ccc3n2)ccc1NC(=O)c1ccnn1C", "note": "[Example 001, 1-methyl-N-(2-methyl-4-(6-(trifluoromethyl)quinolin-2-yl)phenyl)-1H-pyrazole-5-carboxamide]", "IC50": "0.2 to 0.5"},
      {"smiles": "Cc1cc(-c2ccc3cc(F)cc(C4CC4)c3n2)ccc1NC(=O)c1ccnn1C", "note": "[Example 053, N-(4-(8-cyclopropyl-6-fluoroquinolin-2-yl)-2-methylphenyl)-1-methyl-1H-pyrazole-5-carboxamide]", "IC50": "0.5 to 1"},
      {"smiles": "Cc1cc(-c2ncc3cc(C(F)(F)F)ccc3n2)ccc1N(C)C(=O)c1cc(C(N)=O)nn1C", "note": "[Example 222, N5,1-dimethyl-N5-(2-methyl-4-(6-(trifluoromethyl)quinazolin-2-yl)phenyl)-1H-pyrazole-3,5-dicarboxamide]", "IC50": "< 0.2"},
      {"smiles": "Cc1cc(C(=O)N(C)c2ccc(-c3ncc4nc(C(F)(F)F)cc(C)c4n3)cc2C)ccn1", "note": "[Example 150, N,2-dimethyl-N-(2-methyl-4-(8-methyl-6-(trifluoromethyl)pyrido[3,2-d]pyrimidin-2-yl)phenyl)isonicotinamide]", "IC50": "< 0.2"},
      {"smiles": "Cc1cc(-c2ncc3cc(C(F)(F)F)ccc3n2)ccc1N(C)C(=O)c1cnc[nH]1", "note": "[Example 131, N-methyl-N-(2-methyl-4-(6-(trifluoromethyl)quinazolin-2-yl)phenyl)-1H-imidazole-5-carboxamide]", "IC50": "0.2 to 0.5"},
      {"smiles": "Cc1cc(-c2ncc3cc(C(F)(F)F)ccc3n2)ccc1NC(=O)c1ccnc(C(N)=O)c1", "note": "[Example 151, N4-(2-methyl-4-(6-(trifluoromethyl)quinazolin-2-yl)phenyl)pyridine-2,4-dicarboxamide]", "IC50": "< 0.2"},
      {"smiles": "Cc1cc(-c2ncc3cc(C(F)(F)F)ccc3n2)ccc1NC(=O)c1nn(C)cc1C", "note": "[Example 216, 1,4-dimethyl-N-(2-methyl-4-(6-(trifluoromethyl)quinazolin-2-yl)phenyl)-1H-pyrazole-3-carboxamide]", "IC50": "< 0.2"},
      {"smiles": "Cc1cc(-c2ccc3cc(C(F)(F)F)ccc3n2)cc(F)c1N(C)C(=O)c1ccnn1C", "note": "[Example 007, N-(2-fluoro-6-methyl-4-(6-(trifluoromethyl)quinolin-2-yl)phenyl)-N,1-dimethyl-1H-pyrazole-5-carboxamide]", "IC50": "< 0.2"},
      {"smiles": "Cc1cc(-c2ccc3cc(F)ccc3n2)ccc1NC(=O)c1ccnn1C", "note": "[Example 014, N-(4-(6-fluoroquinolin-2-yl)-2-methylphenyl)-1-methyl-1H-pyrazole-5-carboxamide]", "IC50": "0.2 to 0.5"},
      {"smiles": "Cc1cc(-c2ccc3cc(C4CC4)ccc3n2)ccc1N(C)C(=O)c1ccnn1C", "note": "[Example 069, N-(4-(6-cyclopropylquinolin-2-yl)-2-methylphenyl)-N,1-dimethyl-1H-pyrazole-5-carboxamide]", "IC50": "1 to 10"},
      {"smiles": "Cc1cc(-c2ncc3cc(C(F)(F)F)ccc3n2)ccc1N(C)C(=O)c1nnn[nH]1", "note": "[Example 133, N-methyl-N-(2-methyl-4-(6-(trifluoromethyl)quinazolin-2-yl)phenyl)-1H-tetrazole-5-carboxamide]", "IC50": "1 to 10"},
      {"smiles": "Cc1cc(-c2ncc3cc(C(F)(F)F)ccc3n2)ccc1N(C)C(=O)c1ncccc1C", "note": "[Example 118, N,3-dimethyl-N-(2-methyl-4-(6-(trifluoromethyl)quinazolin-2-yl)phenyl)picolinamide]", "IC50": "0.2 to 0.5"},
      {"smiles": "Cc1cc(-c2ncc3cc(C(F)(F)F)ccc3n2)ccc1N1CCNC1=O", "note": "[Example 141, 1-(2-methyl-4-(6-(trifluoromethyl)quinazolin-2-yl)phenyl)imidazolidin-2-one]", "IC50": "< 0.2"},
      {"smiles": "Cc1cc(-c2ccc3cc(C(F)(F)F)ccc3n2)ccc1NC(=O)c1ccn[nH]1", "note": "[Example 204, N-[2-methyl-4-[6-(trifluoromethyl)quinolin-2-yl]phenyl]-1H-pyrazole-5-carboxamide]", "IC50": "1 to 10"},
      {"smiles": "Cc1cc(-c2ccc3cc(C(N)=O)ccc3n2)ccc1NC(=O)c1ccnn1C", "note": "[Example 074, 2-(3-methyl-4-(1-methyl-1H-pyrazole-5-carboxamido)phenyl)quinoline-6-carboxamide]", "IC50": "1 to 10"},
      {"smiles": "Cc1cc(-c2cc(C)c3ccccc3n2)ccc1NC(=O)c1ccnn1C", "note": "[Example 016, 1-Methyl-N-(2-methyl-4-(4-methylquinolin-2-yl)phenyl)-1H-pyrazole-5-carboxamide]", "IC50": "0.5 to 1"},
      {"smiles": "Cc1cnccc1C(=O)N(C)c1ccc(-c2ncc3cc(C(F)(F)F)ccc3n2)cc1C", "note": "[Example 122, N,3-dimethyl-N-(2-methyl-4-(6-(trifluoromethyl)quinazolin-2-yl)phenyl)isonicotinamide]", "IC50": "< 0.2"},
      {"smiles": "Cc1cc(-c2ccc3nc(C(F)(F)F)ccc3n2)ccc1N(C)C(=O)c1ccnn1CCO", "note": "[Example 210, 1-(2-hydroxyethyl)-N-methyl-N-(2-methyl-4-(6-(trifluoromethyl)-1,5-naphthyridin-2-yl)phenyl)-1H-pyrazole-5-carboxamide]", "IC50": "< 0.2"},
      {"smiles": "Cc1cc(-c2ncc3cc(C(F)(F)F)ccc3n2)ccc1NC(=O)c1cn(C)nc1C", "note": "[Example 219, 1,3-dimethyl-N-(2-methyl-4-(6-(trifluoromethyl)quinazolin-2-yl)phenyl)-1H-pyrazole-4-carboxamide]", "IC50": "< 0.2"},
      {"smiles": "Cc1cc(-c2ccc3cc(F)ccc3n2)ccc1NC(=O)c1ccno1", "note": "[Example 037, N-(4-(6-fluoroquinolin-2-yl)-2-methylphenyl)isoxazole-5-carboxamide]", "IC50": "0.5 to 1"}
    ]}
  ]
}
